{"source": "patent US8173824B2", "about": "“Process for producing vitamin D derivative using convergent method” (Chugai Seiyaku Kabushiki Kaisha, priority 2005, dated 2012)", "origin": "cited, not measured here", "key": {"human keratinocyte": {"test_system": "human keratinocyte", "conditions": "background statement, see WO 2001/096293"}, "[1]": {"conditions": "compared with the conventional vitamin D derivatives; background statement"}}}
{"smiles": "C=C1/C(=C\\C=C2/CCC[C@]3(C)C([C@H](C)OCC(=O)NCC(F)(F)C(F)(F)F)=CCC23)C[C@@H](O)C[C@@H]1O", "note": "(stereo partly drawn) [Formula (1), [{(5Z,7E)-(1S,3R,20S)-1,3-dihydroxy-9,10-secopregna-5,7,10(19),16-tetraen-20-yl}oxy]-N-(2,2,3,3,3-pentafluoropropyl)acetamide]", "values": [{"measurement": "human keratinocyte growth inhibition activity", "setting": "human keratinocyte", "value": "exhibits useful human keratinocyte growth inhibition activity"}, {"measurement": "calcium level-raising activity", "setting": "[1]", "value": "lower than the conventional vitamin D derivatives"}]}
